Experimental data as given in PubChem BioAssay AID1963430 (Molecular Pharmacology Branch, DTP, NCI, 2024).
“And” between values parts separate entries of the source, which are not always exact repeats. Identical values can stand only once.

Test system: 521955-158-R2-J5-PDC complex spheroid growth, % test/control
Test: Anticancer human tumor 521955-158-R2-J5-PDC patient-derived pancreatic carcinoma cell line growth inhibition [Asc]
Conditions: for viability, T/C: stronger effect = lower value
Experimental: Multicellular complex tumor spheroid response to apoptosis pathway targeting inhibitors Alrizomadlin, Pelcitoclax, and Dasminapant in combination with a variety of drugs and investigational agents in selected tumor cell lines
The MDM2 inhibitor alrizomadlin, the Bcl-2/Bcl-xL inhibitor pelcitoclax, and the IAPs inhibitor dasminapant were evaluated both individually and in combination with standard of care and investigational anticancer small molecules within a complex spheroid model of solid tumors. . Complex spheroids include a stromal component modeled by human endothelial cells (HUVEC) and fibroblasts modeled by human mesenchymal stem cells (MSCs). The concentration ranges selected for each drug and investigational agent were based upon clinically achievable concentrations if the clinical Cmax of the agent was known.
Compounds. The drugs and investigational agents: alrizomadlin (APG-115; NSC831270), pelcitoclax (APG-1252; NSC835773), dasminapant (APG-1387;NSC834197), TAK-243 (NSC785004), copanlisib (NSC809693), olaparib (NSC753686), talazoparib (NSC767125), cobimetinib (NSC 768068), eltanexor (KPT-8602, NSC 794443), abemaciclib (NSC 768073), sotorasib (NSC818433), adagrasib (NSC 831453), MRTX-1133 (NSC 836407), Iadademestat (ORY1001, NSC 806812), and RMC-4630 (NSC839698), were obtained from the NCI Developmental Therapeutics Program Chemical Repository. The FDA-approved anticancer drug set is available from the Developmental Therapeutics Program at https://dtp.cancer.gov/organization/dscb/obtaining/available plates.htm. […] The stock solutions were prepared in dimethyl sulfoxide (DMSO, Sigma-Aldrich, St. Louis, MO, cat. D2650) at 800-fold the tested concentration and stored at -70 degrees C prior to their use. All drugs and investigational agents were tested over a range starting from a high concentration at or near the clinical Cmax and decreasing in half-log increments. If the clinical Cmax for an agent had not been determined, the highest concentration tested was 10 microM.
The patient-derived cancer (PDC) cell lines include five colon adenocarcinomas: 186277-243-T-J2-PDC, 616215-338-R-J1-PDC, 439559-082-T-J2-PDC, 463943-066-T-J2-PDC, and 519858-162-T-J1-PDC; three pancreatic carcinomas: 323965-272-R-J2-PDC, 521955-158-R6-J3-PDC, and 521955-158-R2-J5-PDC; two uterine sarcomas: 327498-152-R-J2-PDC and 993429-296-R-J1-PDC; two rhabdomyosarcomas: 755483-174-R-J1-PDC and 772245-204-R-J1-PDC; two soft tissue sarcomas: 126254-015-R-J1-PDC and 494315-158-R-J1-PDC; two malignant fibrous histiocytomas: 317291-083-R-J1-PDC and 596521-263-R-J1-PDC; two breast carcinomas: 171881-019-R-J1-PDC and 885512-296-R-J2-PDC; and one ovarian carcinoma: 6556581-035-R-J-PDC were obtained from the NCI PDMR, (https://pdmr.cancer.gov). The established cell lines HSSY-2 synovial sarcoma (RRID:CVCL 8719), SYO-1 synovial sarcoma (RRID:CVCL_7146), MPNST malignant peripheral neural sheath tumor were obtained from the Sloan Kettering Institute. The following established cell lines were purchased from the American Type Culture Collection (ATCC, Manassas, VA), Sor the received from the NCI repository:, PANC-1 pancreatic carcinoma (CRL-1469, RRID:CVCL_0480), OVCAR-5 ovarian carcinoma (RRID:CVCL_1628), OVCAR-8 ovarian carcinoma (RRID:CVCL_1629), , MCF-7 breast carcinoma (CRL-12584, RRID:CVCL_0031), MDA-MB-231 breast carcinoma (CRL-12532, RRID:CVCL_0062), NCI-H1876 small cell lung carcinoma (CRL-5902, RRID:CVCL_1503), NCI-H510A small cell lung carcinoma (HTB-184, RRID:CVCL_1565), NCI-H1417 (CRL-5869, RRID:CVCL_1469), and NCI-H196 small cell lung carcinoma (CRL-5823, RRID:CVCL_1509). Dr. Peter Houghton (Greehey Children's Cancer Research Institute, University of Texas Health Science Center, San Antonio, TX) provided Rh-18 rhabdomyosarcoma (RRID:CVCL_1659). Pooled donor human umbilical vein endothelial cells (HUVEC, Lonza, cat. CC-2519) and human mesenchymal stem cells (hMSC, Lonza, cat. PT-2501) were purchased from Lonza (Walkersville, MD).
Cell Culture. […]
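Also: spheroids exposed to agents for 7 days before readout.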
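For viability, T/C in this document: 100% = DMSO vehicle control viability.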

SMILES | viability, T/C (compound 0.0316 µM) | viability, T/C (compound 0.1 µM) | viability, T/C (compound 0.316 µM) | viability, T/C (compound 1 µM) | viability, T/C (compound 3.16 µM) | viability, T/C (compound 10 µM) | IC50 (curve of compound) | viability, T/C (compound 0.00949 µM) | viability, T/C (compound 0.00316 µM) | viability, T/C (compound 0.01 µM) | also measured
C#Cc1c(F)ccc2cc(O)cc(-c3ncc4c(N5CC6CCC(C5)N6)nc(OCC56CCCN5CC(F)C6)nc4c3F)c12 (stereo not given) | 23.2% and 40.7% and 50.5% | 28.2% and 48.4% and 47.1% | 22.3% and 37.1% and 31.9% | 20.6% and 36.3% and 36.4% | 24.6% and 37.5% and 33.1% | 21.9% and 34.4% and 44.3% | < 0.0316 µM and 0.0359 µM | – | – | – | –
C=C(F)C(=O)N1CCN(c2nc(OCC3CCCN3C)nc3c2CCN(c2cccc4cccc(Cl)c24)C3)CC1CC#N (stereo not given) | 68.6% and 77.1% and 84.2% | 89% and 77.1% and 94.1% | 78.8% and 86.1% and 107% | 105% and 95.4% and 98.1% | 115% and 136% and 120% | 0.29% and 0.32% (2×) | 5.33 µM and 5.44 µM and 5.66 µM | – | – | – | –
C=CC(=O)N1CCN(c2nc(=O)n(-c3c(C)ccnc3C(C)C)c3nc(-c4c(O)cccc4F)c(F)cc23)C(C)C1 (stereo not given) | 87.7% and 88.9% and 88.2% | 72.1% and 90.3% and 87.8% | 76.3% and 92.3% and 90.2% | 108% and 87.7% and 113% | 102% and 121% and 112% | 101% (2×) and 95.5% | > 10 µM | – | – | – | –
CCN1C(C(=O)NC23CCC(C(=O)O)(CC2)CC3)C(c2cccc(Cl)c2F)C2(C(=O)Nc3cc(Cl)ccc32)C12CCCCC2 (stereo not given) | – | – | – | – | – | – | > 3 µM | 94.9% and 87.6% | – | – | IC50 (compound alone, run of 09/27/2022): > 3 µM
CCN1CCN(Cc2ccc(Nc3ncc(F)c(-c4cc(F)c5nc(C)n(C(C)C)c5c4)n3)nc2)CC1 | 54.5% and 79.2% and 78.5% | 66.6% and 70.4% and 70.9% | 74.6% and 71.2% and 91.2% | 103% and 98.6% and 108% | – | – | > 1 µM | – | 70.6% and 82.3% and 87.5% | 72% and 65.5% and 92.3% | –
CNC(C)C(=O)NC1CN(S(=O)(=O)c2cccc(S(=O)(=O)N3CCC4CCC(C(=O)NC(c5ccccc5)c5ccccc5)N4C(=O)C(NC(=O)C(C)NC)C3)c2)CCC2CCC(C(=O)NC(c3ccccc3)c3ccccc3)N2C1=O (stereo not given) | – | – | – | – | – | – | > 1 µM | – | 72.5% and 68.6% | – | IC50 (compound alone, run of 10/03/2022): > 1 µM
COc1c(OCCCN2CCOCC2)ccc2c3n(c(=NC(=O)c4cnc(N)nc4)nc12)CCN3 | 40.8% and 38.2% and 34.3% | 30.1% and 31.6% and 29.1% | 18.9% and 20% and 19.9% | 15.3% and 16.1% and 14.2% | – | – | 0.0107 µM and 0.00752 µM and 0.00861 µM | – | 53.2% and 58.9% and 68.7% | 51.9% and 45.7% and 44% | –
Cc1nc(N2CCC3(CC2)COC(C)C3N)c(CO)nc1Sc1ccnc(N)c1Cl (stereo not given) | – | – | – | – | – | – | – | 70.6% and 72.1% and 91.2% | – | – | viability, T/C (compound 0.03 µM): 68.2% and 54.1% and 87.1%; viability, T/C (compound 0.0949 µM): 59.4% and 48.2% and 62.4%; viability, T/C (compound 0.3 µM): 48.2% (2×) and 65.5%; viability, T/C (compound 0.949 µM): 55.2% and 53.1% and 52.7%; viability, T/C (compound 3 µM): 51.9% and 43.2% and 57.4%
Cn1ncnc1[C@H]1c2n[nH]c(=O)c3cc(F)cc(c23)N[C@@H]1c1ccc(F)cc1 | 81.5% and 76.8% and 63.5% | 57.7% and 68.6% and 70.2% | – | – | – | – | > 0.1 µM | – | 68.4% and 93.3% and 73.6% | 76.5% and 83.7% and 68.9% | viability, T/C (compound 0.000316 µM): 106% and 99.6% and 79.6%; viability, T/C (compound 0.001 µM): 81.4% and 87.9% and 79.3%
NC(=O)C(=Cn1cnc(-c2cc(C(F)(F)F)cc(C(F)(F)F)c2)n1)c1cncnc1 | – | – | – | – | – | – | – | 37.3% and 48.3% and 47.9% | – | – | viability, T/C (compound 0.000949 µM): 68.4% and 84.3% and 83.5%; viability, T/C (compound 0.003 µM): 42.6% and 54.8% and 95.5%; viability, T/C (compound 0.03 µM): 28.6% and 36.7% and 57.8%; viability, T/C (compound 0.0949 µM): 27.8% and 32.6% and 43.7%; viability, T/C (compound 0.3 µM): 23.8% and 48% and 30.4%
